{
  "source": "paper PMC10707724",
  "about": "“Dual Effects of 3-epi-betulin from Daphniphyllum glaucescens in Suppressing SARS-CoV-2-Induced Inflammation and Inhibiting Virus Entry” (International Journal of Molecular Sciences, 2023)",
  "key": {"[1]": {"tested_on": "wild-type SARS-CoV-2 pseudovirus Spv", "test": "microbe, parasite or virus in culture", "assay_type": "cell-based", "details": "Severe acute respiratory syndrome-related coronavirus, BHK-ACE2, 48 h, read-out: EC50, pseudovirus entry"}, "[2]": {"tested_on": "pro-inflammatory genes (IL1B, IL6) in differentiated THP-1 cells", "assay_type": "cell-based"}, "SARS-CoV-2 pseudoviruses": {"tested_on": "SARS-CoV-2 pseudoviruses", "assay_type": "cell-based", "details": "pseudovirus pre-treated with compound 37 °C 1 h, BHK-ACE2 48 h, luciferase"}, "BHK-ACE2 cells": {"tested_on": "BHK-ACE2 cells", "details": "BHK-ACE2, 48 h, MTS"}, "[3]": {"tested_on": "wild-type SARS-CoV-2 pseudovirus SEMpv", "test": "microbe, parasite or virus in culture", "assay_type": "cell-based", "details": "Severe acute respiratory syndrome-related coronavirus, BHK-ACE2, 48 h, read-out: EC50, pseudovirus entry"}, "VSV-pseudovirus (Gpv)": {"tested_on": "VSV-pseudovirus (Gpv)", "assay_type": "cell-based"}, "[4]": {"tested_on": "SARS-CoV-2 (hCoV-19/Taiwan/NTU49/2020)", "assay_type": "cell-based", "details": "Calu-3, 10 μM for 24 h after infection"}, "SARS-CoV-2 Gamma (P1)": {"tested_on": "SARS-CoV-2 Gamma (P1)", "test": "microbe, parasite or virus in culture", "assay_type": "cell-based", "details": "Severe acute respiratory syndrome coronavirus 2, Vero C1008, Gamma (P1)"}, "[5]": {"tested_on": "SARS-CoV-2 Omicron (BA.1)", "test": "microbe, parasite or virus in culture", "assay_type": "cell-based", "details": "Severe acute respiratory syndrome coronavirus 2, Vero C1008"}, "[6]": {"tested_on": "SARS-CoV-2 (hCoV-19/Taiwan/NTU49/2020)", "test": "microbe, parasite or virus in culture", "assay_type": "cell-based"}, "[7]": {"tested_on": "pro-inflammatory genes, IL6 and TNF, in Calu-3 cells", "assay_type": "cell-based"}, "[8]": {"tested_on": "SARS-CoV-2 Alpha (B.1.1.7)", "test": "microbe, parasite or virus in culture", "assay_type": "cell-based", "details": "Severe acute respiratory syndrome coronavirus 2, Vero C1008, Alpha (B.1.1.7)"}, "[9]": {"tested_on": "SARS-CoV-2 Delta (B.1.617.2)", "test": "microbe, parasite or virus in culture", "assay_type": "cell-based", "details": "Severe acute respiratory syndrome coronavirus 2, Vero C1008, Delta (B.1.617.2)"}, "[10]": {"tested_on": "SARS-CoV-2 Eplison (B.1.429)", "test": "microbe, parasite or virus in culture", "assay_type": "cell-based", "details": "Severe acute respiratory syndrome coronavirus 2, Vero C1008, Eplison (B.1.429)"}, "SARS-CoV-2 replicon": {"tested_on": "SARS-CoV-2 replicon", "test": "microbe, parasite or virus in culture", "assay_type": "cell-based", "details": "Severe acute respiratory syndrome coronavirus 2, HEK-293T, read-out: EC50, replication of SARS-CoV-2 replicon (luciferase activity)"}, "spike protein": {"tested_on": "spike protein", "details": "cited from earlier work"}, "[11]": {"tested_on": "SARS-CoV-2 virus spike binding to ACE2", "details": "by computational screening; cited from earlier work"}, "[12]": {"details": "compound given after pseudovirus infection, 16 h (time-of-addition study)"}},
  "data": [
    {"smiles": "C=C(C)[C@@H]1CC[C@]2(CO)CC[C@]3(C)[C@H](CC[C@@H]4[C@@]5(C)CC[C@@H](O)C(C)(C)[C@@H]5CC[C@]43C)[C@@H]12", "note": "[Compound 5, 3-epi-Betulin]", "values": [
      {"measurement": "EC50", "setting": "[1]", "value": 16.3, "unit": "µM"},
      {"measurement": "decrease in IL1B expression", "setting": "[2]; [12]", "value": 69.5, "unit": "%"},
      {"measurement": "decrease in IL6 expression", "setting": "[2]; [12]", "value": 82.9, "unit": "%"},
      {"measurement": "expression of pro-inflammatory genes, pre-inoculation", "setting": "[2]; compound mixed with pseudovirus 1 h before infecting differentiated THP-1 cells", "value": "remained unchanged"},
      {"measurement": "expression of pro-inflammatory genes, pre-treatment", "setting": "[2]; compound on differentiated THP-1 cells 1 h before pseudovirus infection", "value": "remained unchanged"},
      {"measurement": "IL1B RNA level decrease", "setting": "[2]; differentiated THP-1 infected with SEMpv, then compound for 16 h", "value": 47.3, "unit": "%"},
      {"measurement": "inhibitory activity for virus entry", "setting": "SARS-CoV-2 pseudoviruses", "value": "highest inhibitory activity"},
      {"measurement": "cytotoxicity", "setting": "BHK-ACE2 cells", "value": "no cytotoxicity"},
      {"measurement": "EC50", "setting": "[3]", "value": 14.6, "unit": "µM"},
      {"measurement": "inhibitory activity against control VSV-pseudovirus", "setting": "VSV-pseudovirus (Gpv)", "value": "no inhibitory activity"},
      {"measurement": "minus-stranded viral RNA decrease", "setting": "[4]", "value": 51.7, "unit": "%"},
      {"measurement": "plus-stranded viral RNA reduction", "setting": "[4]", "value": 73.8, "unit": "%"},
      {"measurement": "culture supernatant viral load decrease", "setting": "[4]; RT-qPCR", "value": 61.4, "unit": "%"},
      {"measurement": "plaque formation decline", "setting": "[4]; plaque assay of supernatant", "value": 51.5, "unit": "%"},
      {"measurement": "EC50", "setting": "SARS-CoV-2 Gamma (P1)", "value": 3.27, "unit": "µM"},
      {"measurement": "EC50", "setting": "[5]", "value": "14.5 ± 3.9", "unit": "µM"},
      {"measurement": "EC50", "setting": "[6]; Severe acute respiratory syndrome coronavirus 2, Calu-3 lung epithelial cells, read-out: EC50, SARS-CoV-2 infection", "value": "< 20", "unit": "µM"},
      {"measurement": "intracellular viral RNA decrease", "setting": "[6]; virus pre-incubated with 20 μM, Calu-3, 24 h", "value": 45.6, "unit": "%"},
      {"measurement": "infectious virus titer decrease", "setting": "[6]; virus pre-incubated with 20 μM, Calu-3, 24 h, plaque assay", "value": 66.3, "unit": "%"},
      {"measurement": "IL6 expression decrease", "setting": "[7]", "value": 66.6, "unit": "%"},
      {"measurement": "TNF expression decrease", "setting": "[7]", "value": 46.0, "unit": "%"},
      {"measurement": "EC50", "setting": "[8]", "value": 10.3, "unit": "µM"},
      {"measurement": "EC50", "setting": "[9]", "value": 3.09, "unit": "µM"},
      {"measurement": "EC50", "setting": "[10]", "value": 12.9, "unit": "µM"},
      {"measurement": "EC50", "setting": "SARS-CoV-2 replicon", "value": "11.7 ± 0.4", "unit": "µM"}
    ]},
    {"smiles": "C=C(C)[C@@H]1CC[C@]2(CO)CC[C@]3(C)[C@H](CC[C@@H]4[C@@]5(C)CC[C@H](O)C(C)(C)[C@@H]5CC[C@]43C)[C@@H]12", "note": "[Compound 7, Betulin]", "values": [
      {"measurement": "ability to bind to the spike protein", "setting": "spike protein", "value": "ability to bind to the spike protein"}
    ]},
    {"smiles": "C=C(C)[C@@H]1CC[C@]2(C(=O)O)CC[C@]3(C)[C@H](CC[C@@H]4[C@@]5(C)CC[C@H](O)C(C)(C)[C@@H]5CC[C@]43C)[C@@H]12", "note": "[Betulinic acid]", "values": [
      {"measurement": "inhibition of spike binding to ACE2 through the RBD domain", "setting": "[11]", "value": "inhibit SARS-CoV-2 virus spike binding to ACE2"}
    ]}
  ]
}
